Data from the NIST ThermoML archive (doi:10.1016/j.jct.2016.03.020).

Conditions: Liquid, Gas chromatography

Cc1coc2c1CC[C@@H](C)C2 [(R)-menthofuran]
Conditions	vapor or sublimation pressure [kPa]
298.15 K	0.036
374.3 K	2.93
380 K	3.76
400 K	8.37
420 K	17.06
482.4 K	101.23
